Assay results reported in article PMC6815956, “Bioinspired Self-assembling Peptide Hydrogel with Proteoglycan-assisted Growth Factor Delivery for Therapeutic Angiogenesis” (Theranostics, 2019).

What was measured:
[1] = Isothermal titration calorimetry, binding of HS to LRK; settings: ITC, 25 °C, PBS
Description: Isothermal titration calorimetry (ITC) measurements were operated at 25 °C using a Micro ITC-200 microcalorimeter (GE Healthcare Life Sciences). The procedure was performed by titrating 0.35 mM HS from a syringe into 0.2 mM RADA16-LRK peptide solution loaded in a cell (both in PBS). In the next step, the data were integrated after background correction and fitted to a curve to obtain the binding constant.
To test the binding affinity between HS and […] peptide sequence, the molecular interactions between LRK sequence and HS were studied by ITC. Heat changes were recorded when the increments of HS solution were titrated drop by drop into functionalized peptide LRK solution. The binding constant Ka = [drawing 5] M^-1 was then obtained by approximating the integrated data into a fitting curve (Figure 4A).

[2] = In vitro disintegration in cell culture medium; type: physicochemical; settings: 2 % (w/v) hydrogel, with and without mTG (20 U/mL), n = 6
Description: (§1) The 2 % (w/v) RADA16-QLK and RADA16-LRK peptide solutions were mixed in a volume ratio of 3:1, and then introduced into a self-made cylinder mold. PBS buffer or cell culture medium was further added to trigger sol-gel transition. For the crosslinking process, the self-assembled cylindrical hydrogel was soaked into mTG solution (20 U/mL PBS) for 12 h at 38 °C. 40 µL of peptide hydrogel was transferred into a 96-well plate followed by 200 µL of PBS added to each well and incubated at 37 °C. At predetermined time points (3, 12, 24, 72, 168, 336, 504, 672, and 840 h), the supernatant was completely removed by syringe and replenished with fresh PBS. The collected supernatant was then stored at -80 °C for further tests. Ninhydrin reagent solution was employed to quantify the disintegrated peptide amino acid sequences of the hydrogel according to manufacturer's protocols. After the addition of 95 % ethanol to stop the reaction, the absorbance of the hydrogel at 570 nm was measured by a SpectraMax Plus 384 Microplate Reader.
To evaluate the stability of the peptide hydrogel in PBS buffer, Ninhydrin reagent solution was used to quantify the disintegration rate of peptide hydrogel in vitro. […] After this initial period of rapid disintegration, the kinetics slowed down. […]

[3] = Circular dichroism spectroscopy (secondary structure); type: physicochemical; settings: 0.05 % (w/v)
Description: Circular dichroism (CD) spectra were collected on a CD Spectrometer Model 410 (AVIV Biomedical Inc.) to explore the secondary structure of SAPs. The cuvette quartz cell's path length was 1mm with a wavelength range between 190-260 nm at ambient temperature. The 0.05 % (w/v) RADA16-QLK, RADA16-LRK, and HS solution were allowed to store at 4 °C overnight to ensure complete self-assembly before measurement.
(§2) TEM images were obtained to identify the morphological change of nanofiber microstructure before and after enzymatic crosslinking. […] From the findings of TEM and AFM images, the interwoven nanofibers with diameters of 10-20 nm and pore sizes between 10-200 nm were similar to natural ECM fibers in both appearances and scales (Figure 2B-E).

[4] = Oscillatory rheology, frequency sweep; type: physicochemical; settings: for storage modulus (G'): frequency sweep, 1 % strain
Description: (§3) The mechanical properties of the hydrogel scaffold were measured using a rheometer (Anton Paar, US). Measurements for the dynamic oscillatory frequency sweep (0.1-100 Hz) were performed at 1% strain amplitude and 25 °C. Shear recovery (1 % strain for 60 s, 50 % strain for 30 s, 1 % strain for 60 s) was conducted for three cycles at 25 °C. All measurements were performed on a 25-mm cone plate and the Anton Paar Rheometer software was used for analysis.
as §1
(§4) To test the mechanical stability and stiffness of the peptide hydrogel, frequency sweep and shear recovery measurements were conducted. […] The storage modulus (G') of QLK hydrogel increased from 1000 Pa to 5000 Pa, while the G' of QLK/LRK hydrogel increased from 400 Pa to 2500 Pa (Figure 3A-B). At least a five-fold enhancement in rheological stiffness and the mechanical properties of QLK-functionalized hydrogel were adjustable with mTG treatment. The concentration of transglutaminase also had influence on the mechanical properties of the hydrogel. Basically, the storage modulus (G') of the hydrogel was increased with the increase of mTG concentration. It was measured at pressure levels of 1 kPa, 1.5 kPa, 3 kPa, 5 kPa with respect to the concentrations of 0 U/mL, 5 U/mL, 10 U/mL, 20 U/mL.
Figure 3 Rheological properties of peptide hydrogel.

[5] = TEM and AFM of nanofibers; type: physicochemical; settings: 0.05 % (w/v); for fiber morphology: TEM
Description: Transmission electron microscopy (TEM) was used to observe the microstructure of peptides with a Hitachi HT7700 (120 kV) Bio-TEM. The 0.05 % (w/v) RADA16-QLK before and after microbial transglutaminase (mTG) crosslinking were prepared at pH 7. The TEM samples were prepared by dropping 10 μL of peptide solution on the copper grid coated with carbon film and stained with 2 % phosphotungstic acid solution. The morphology of the peptide scaffolds was captured using atomic force microscopy (AFM) (DI Dimension 3100, Veeco Instruments Inc, US) in dynamic force mode. In brief, 0.05 % (w/v) peptide solution was sprayed on the surface of a cleaved mica for 5 min, the surface was then washed with sterilized water for several times and blown dry by anhydrous nitrogen.
as §2

[6] = Shear recovery (continuous step strain); type: physicochemical; settings: 1 % strain 60 s, 50 % strain 30 s, three cycles, 25 °C, n = 6
Description: as §3, §4

[7] = In vitro disintegration in PBS (ninhydrin); type: physicochemical; settings: 2 % (w/v) hydrogel, 37 °C, ninhydrin 570 nm, n = 6; for total disintegration in PBS: 35 days; for disintegration in PBS: first three days
Description: as §1
To evaluate the stability of the peptide hydrogel in PBS buffer, Ninhydrin reagent solution was used to quantify the disintegration rate of peptide hydrogel in vitro. […] After this initial period of rapid disintegration, the kinetics slowed down. […] The disintegration rate of hydrogel was slower in the crosslinking group when compared with that in the non-crosslinking group during the investigative time period. Next, we are interested in figuring out if different culture condition will result in different peptide disintegration rate. Thus, another group of peptides incubated in cell culture medium was also conducted for comparison.

[8] = compared with VEGF; ref [20]; cited from earlier work
HUVECs = assay: Endothelial tube-like formation assay; type: cell-based, human; settings: GF released from hydrogel (200 ng, 3 days), 8 h, n = 8, vs basal medium
Description: To identify the angiogenic ability of released GFs in vitro, 80 µL of GF-depleted peptide hydrogel was introduced to a pre-cooled 96-well plate using chilled pipet tips. The gel was incubated for 30 min at 37 °C with 5 % CO2 to induce gelation. [drawing 4] HUVECs were first seeded on GF-depleted peptide hydrogel with 100 μL of culture medium and incubated for 8 h. […] Finally, the differentiations of HUVECs were observed periodically for 8 h under an inverted phase contrast microscope. Angiogenesis Analyzer ImageJ (NIH) was employed for quantification and the images were taken in ten random fields per sample.
Figure 5 The human umbilical vein endothelial cells (HUVECs) tube-like formation assay. […] (B) The original images were analyzed by Angiogenesis Analyzer for ImageJ (NIH), and the quantified result of total vessels length, total meshes area, total branches intervals were calculated (all the values were normalized with the analyzed area). […] Error bars show ± S.D. for total n = 8.

[9] = GF loading efficiency (ELISA); type: physicochemical; settings: GF/HS complex in QLK/LRK peptide hydrogel, n = 6
Description: (§5) At specific time intervals, the supernatants were collected, stored at -80 °C, and fresh release buffer was compensated. […] After adding the stop solution, the absorbance of the hydrogel at 450/540 nm was recorded by SpectraMax Plus 384 Microplate Reader.
(§6) It was the major challenge for scaffold-based GF delivery that how to maintain the release rate of incorporated GFs.

[10] = GF release profile (ELISA); type: physicochemical; settings: from GAG-assisted QLK/LRK hydrogel, PBS w/ 0.05 % Tween 20, 1 % BSA, 37 °C, n = 6
Description: as §5, §6

AcN-RADARADARADARADAGGLRKKLGKA-CONH
HS binding (in words) [1]: good HS binding consensus sequence

AcN-RADARADARADARADAGGQQLK-NH2 [self-assembling peptide with transglutaminase-crosslinkable QQLK motif; forms hydrogel]
disintegration in cell culture medium vs PBS [2]: degraded faster in the culture medium condition compared to that in PBS, especially in the group without crosslinking
secondary structure by CD ([3]; 4 °C overnight, ambient temperature, without mTG): β-sheet secondary structure
secondary structure by CD ([3]; after mTG crosslinking): β-sheet secondary structure
CD negative maximum peak ([3]; after mTG crosslinking): 216 nm
CD positive maximum peak ([3]; after mTG crosslinking): ~195 nm
CD negative maximum peak ([3]; without mTG): 216 nm
CD positive maximum peak ([3]; without mTG): ~195 nm
enhancement of stiffness / storage modulus by mTG ([4]; after vs before mTG, 25 °C): five-fold increase of storage modulus
storage modulus (G') ([4]; 25 °C, after mTG crosslinking): 5000 Pa
storage modulus (G') ([4]; 25 °C, before mTG crosslinking): 1000 Pa
storage modulus (G') vs mTG concentration ([4]; mTG 0 U/mL): 1 kPa
storage modulus (G') vs mTG concentration ([4]; mTG 5 U/mL): 1.5 kPa
storage modulus (G') vs mTG concentration ([4]; mTG 10 U/mL): 3 kPa
storage modulus (G') vs mTG concentration ([4]; mTG 20 U/mL): 5 kPa
nanofiber diameter ([5]; TEM and AFM, pH 7): 10-20 nm
pore size of fibrous network ([5]; TEM and AFM, pH 7): 10-200 nm
fiber morphology ([5]; pH 7, after mTG (20 U/mL) crosslinking): more densely-compacted nanofibrous entanglements and more continuous self-assembling fibers
fiber morphology ([5]; pH 7, before enzymatic crosslinking): Sparsely-wired fiber entanglements
shear thinning / shear recovery [6]: shear thinning and a potential shear recovery ability
total disintegration in PBS ([7]; mTG-crosslinked (20 U/mL)): approximately 61%
total disintegration in PBS ([7]; non-crosslinked): ~82%
disintegration in PBS ([7]; mTG-crosslinked (20 U/mL)): 20%
disintegration in PBS ([7]; non-crosslinked): 40%

HGF: Recombinant Human HGF (HEK293 derived); hepatocyte growth factor
binding affinity with heparin or HS (in words) [8]: higher binding affinity with heparin or HS than VEGF
tube-like formation of HUVECs (HUVECs): positive effect on tube-like formation of HUVECs
loading efficiency [9]: ~82.5 ± 2.1%
cumulative release, total ([10]; 28 days, ELISA): approximately 46%
cumulative release, initial ([10]; day 3, ELISA): 25%

VEGF
tube-like formation of HUVECs (HUVECs): positive effect on tube-like formation of HUVECs
